From US12521395B2, “Gem-disubstituted heterocyclic compounds and their use as IDH inhibitors” (NERVIANO MEDICAL SCIENCES S.R.L., priority 2019, dated 2026)
Like-named read-outs stand apart in the source and are kept apart here.

Legend:
[1] = tested on: cell lines HT-1080 (IDH1^R132C); test: Cellular assay: inhibition of 2HG production, LC-MS/MS; type: cell-based; details: Homo sapiens, 72 hr incubation, 2-HG in cell culture media, read-out: HT1080 2-HG IC50
Procedure: Cell lines HT-1080 (commercially available) are maintained in E-MEM 10% FCS and incubated at 37° C. in a humidified 5% CO2 atmosphere.
Cells are seeded into 96 well black flat bottom plates at a density of 500 cells/well in 100 μL complete medium. After 24 hr the medium is replaced with 200 μL of fresh medium and compounds (dissolved into DMSO) are administrated to the cells using D300E Digital Dispenser (Tecan).
After 72 hr of incubation 100 μL from each well are collected and used for 2HG (R(−)-2-hydroxyglutarate) quantification. Levels of 2-HG in cell culture media are determined by LC-MS/MS. Cell supernatants (100 μL/well) are treated with 1 M aqueous trichloroacetic acid containing 130 μM of the internal standard 2-HG-d3 (20 μL/well) in a 96-well plate. The plates are sealed, mildly vortexed for 60 minutes, centrifuged at 4,000 RPM for 15 minutes, placed in a refrigerated autosampler taking care not to shake them, and aliquots of the upper part of the samples are directly injected in the chromatographic system. Calibration standards are obtained by ten folds dilution of aqueous 2-HG stock solutions with blank cell culture medium and denatured exactly in the same way as described above for samples. Samples and standards are assayed for 2-HG by reversed phase chromatography on a C18 column eluted with aqueous 0.15% formic acid and briefly washed with 90% methanol at the end of the run. 2-HG is determined by negative ion electrospray ionization with the internal standard method on a triple quadrupole mass spectrometer monitoring the MRM transitions 147>129 (2-HG) and 150>132 (2-HG-d3).
2-HG inhibition was calculated by comparing treated versus control data using Assay Explore (Symyx) software, with IC50 determined using a sigmoidal fitting algorithm.

[2] = target: IDH1^R132C (Homo sapiens, UniProt O75874, R132C); test: NADPH depletion assay (diaphorase/resazurin), IDH1 R132C; type: biochemical
Sequence of IDH1^R132C (O75874 whole entry R132C, canonical isoform): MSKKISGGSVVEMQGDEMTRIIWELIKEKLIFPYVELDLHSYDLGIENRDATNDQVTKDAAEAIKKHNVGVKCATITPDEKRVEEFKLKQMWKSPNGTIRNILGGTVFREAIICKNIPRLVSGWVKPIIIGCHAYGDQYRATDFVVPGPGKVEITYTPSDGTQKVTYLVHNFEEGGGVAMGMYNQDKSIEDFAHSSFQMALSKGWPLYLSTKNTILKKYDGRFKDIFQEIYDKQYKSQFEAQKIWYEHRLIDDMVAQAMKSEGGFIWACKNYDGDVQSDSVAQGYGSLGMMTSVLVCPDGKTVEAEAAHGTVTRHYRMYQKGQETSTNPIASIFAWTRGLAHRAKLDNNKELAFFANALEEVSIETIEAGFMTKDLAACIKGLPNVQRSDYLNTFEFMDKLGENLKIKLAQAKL
Procedure: IDH mutated enzyme activity converting alpha-ketoglutarate to 2-hydroxyglutaric acid is measured using a NADPH depletion assay. In the assay the remaining cofactor is measured at the end of the reaction with the addition of a catalytic excess of diaphorase and resazurin, to generate a fluorescent signal in proportion to the amount of NADPH remaining. IDH1 WT enzyme as well as mutated isoforms IDH1^R132H, IDH1^R132C, and IDH2^R172K enzymes are commercially available proteins (see e.g. Sino Biological, Abcam, Active Motif or Creative BioMart).
IDH1^R132H homodimer enzyme are diluted to 8 nM, in 10 μL of Assay Buffer (150 mM NaCl, 50 mM Tris-HCl pH 7.6, 10 mM MgCl2, 0.001% Triton X-100, 4 mM β-mercaptoethanol); 0.2 μL of test compound, previously serially diluted 1 to 3, >10 experimental points from 1 mM in DMSO, is added and the mixture is incubated for 15 minutes at room temperature. The reaction is started with the addition of 10 μL of Substrate Mix (12 μM NADPH, 3.4 mM alpha-ketoglutarate in Assay Buffer) and the mixture is incubated for 60 minutes at room temperature. The reaction is terminated with the addition of 5 μl of Detection Buffer (100 μg/mL diaphorase, 30 μM resazurin, in IX Assay Buffer), and is incubated for 15 minutes before reading on a ViewLux as platereader at Ex544/Em590.
Compounds are assayed for their activity against IDH1^R132C following the same assay as above with the following modifications: IDH1^R132C and alpha-ketoglutarate final concentrations in the Assay Buffer is 2 nM and 0.14 mM, respectively.

[3] = IDH1^R132C 2 nM, alpha-ketoglutarate 0.14 mM, read-out: IDH1^R132C IC50

**Q.** For `C=CC(=O)N1CCN(C(C)(C)c2ccc([C@H](C)Nc3ncc4ccc(=O)n(C(C)C)c4n3)cc2)CC1` [cpd 2, 2-{[(1S)-1-{4-[2-(4-acryloylpiperazin-1-yl)propan-2-yl]phenyl}ethyl]amino}-8-(propan-2-yl)pyrido[2,3-d]pyrimidin-7(8H)-one], which IC50 [1] is on record?
**A.** 4.9 nM

**Q.** And the IC50 [2, 3]?
**A.** 12 nM

**Q.** For `C=CC(=O)N1CCN(C2(c3ccc([C@H](C)Nc4ncc5ccc(=O)n(C(C)C)c5n4)cc3)COC2)CC1` [cpd 3, 2-{[(1S)-1-{4-[3-(4-acryloylpiperazin-1-yl)oxetan-3-yl]phenyl}ethyl]amino}-8-(propan-2-yl)pyrido[2,3-d]pyrimidin-7(8H)-one], which IC50 [1] is on record?
**A.** 13 nM

**Q.** And the IC50 [2, 3]?
**A.** 27.2 nM

**Q.** How did the IC50 [1] turn out when `C=CC(=O)N1CCN(C2(c3ccc([C@H](C)Nc4ncc5ccc(=O)n(C(C)C)c5n4)cc3)CCN(C(C)=O)CC2)CC1` [cpd 6, 2-{[(1S)-1-{4-[1-acetyl-4-(4-acryloylpiperazin-1-yl)piperidin-4-yl]phenyl}ethyl]amino}-8-(propan-2-yl)pyrido[2,3-d]pyrimidin-7(8H)-one] was run?
**A.** 5.2 nM

**Q.** What about the IC50 [2, 3] of the same compound?
**A.** 5.9 nM

**Q.** Which IC50 [1] does the source give for `C=C(CN1CCN(C2(c3ccc([C@H](C)Nc4ncc5ccc(=O)n(C(C)C)c5n4)cc3)CCOCC2)CC1)C(=O)O` [cpd 7, 2-{[4-(4-{4-[(1S)-1-{[7-oxo-8-(propan-2-yl)-7,8-dihydropyrido[2,3-d]pyrimidin-2-yl]amino}ethyl]phenyl}tetrahydro-2H-pyran-4-yl)piperazin-1-yl]methyl}prop-2-enoic acid] here?
**A.** 562 nM

**Q.** And the IC50 [2, 3]?
**A.** 40.2 nM

**Q.** Which IC50 [1] does the source give for `CCC(=O)N1CCN(C2(c3ccc([C@H](C)Nc4ncc5ccc(=O)n(C(C)C)c5n4)cc3)CCOCC2)CC1` [cpd 8, 2-{[(1S)-1-{4-[4-(4-propanoylpiperazin-1-yl)tetrahydro-2H-pyran-4-yl]phenyl}ethyl]amino}-8-(propan-2-yl)pyrido[2,3-d]pyrimidin-7(8H)-one] here?
**A.** 1930 nM

**Q.** And the IC50 [2, 3]?
**A.** 1320 nM

**Q.** `C=CC(=O)N1CCN(C2(c3ccc([C@@H](C)Nc4ncc5ccc(=O)n(C(C)C)c5n4)cc3)CCOCC2)CC1` [cpd 9, 2-{[(1R)-1-{4-[4-(4-acryloylpiperazin-1-yl)tetrahydro-2H-pyran-4-yl]phenyl}ethyl]amino}-8-(propan-2-yl)pyrido[2,3-d]pyrimidin-7(8H)-one] was tested. Which IC50 [1] did it give?
**A.** 67 nM

**Q.** And the IC50 [2, 3]?
**A.** 125 nM

**Q.** For `C=CC(=O)N1CCN(C2(c3ccc([C@H](C)Nc4ncc5ccc(=O)n(C(C)C)c5n4)cn3)CCOCC2)CC1` [cpd 12, 2-{[(1S)-1-{6-[4-(4-acryloylpiperazin-1-yl)tetrahydro-2H-pyran-4-yl]pyridin-3-yl}ethyl]amino}-8-(propan-2-yl)pyrido[2,3-d]pyrimidin-7(8H)-one], which IC50 [1] is on record?
**A.** 34 nM

**Q.** What about the IC50 [2, 3] of the same compound?
**A.** 117 nM

**Q.** Which IC50 [1] does the source give for `C=CC(=O)N1CCN(C2(c3ccc([C@H](C)Nc4ncc5ccc(=O)n(CC)c5n4)cc3)CCOCC2)CC1` [cpd 14, 2-{[(1S)-1-{4-[4-(4-acryloylpiperazin-1-yl)tetrahydro-2H-pyran-4-yl]phenyl}ethyl]amino}-8-ethylpyrido[2,3-d]pyrimidin-7(8H)-one] here?
**A.** 4.8 nM

**Q.** What about the IC50 [2, 3] of the same compound?
**A.** 4.4 nM

**Q.** For `C=CC(=O)N1CCN(C2(c3ccc([C@H](C)Nc4ncc5c(C)cc(=O)n(C6CCCC6)c5n4)cc3)CCOCC2)CC1` [cpd 15, 2-{[(1S)-1-{4-[4-(4-acryloylpiperazin-1-yl)tetrahydro-2H-pyran-4-yl]phenyl}ethyl]amino}-8-cyclopentyl-5-methylpyrido[2,3-d]pyrimidin-7(8H)-one], which IC50 [1] is on record?
**A.** 9 nM

**Q.** What about the IC50 [2, 3] of the same compound?
**A.** 24.7 nM

**Q.** How did the IC50 [1] turn out when `C=CC(=O)N1CCN(C2(c3ccc([C@H](C)Nc4ncc5ccc(=O)n(C(C)C)c5n4)cc3)CCCC2)CC1` [cpd 16, 2-{[(1S)-1-{4-[1-(4-acryloylpiperazin-1-yl)cyclopentyl]phenyl}ethyl]amino}-8-(propan-2-yl)pyrido[2,3-d]pyrimidin-7(8H)-one] was run?
**A.** 0.3 nM

**Q.** What about the IC50 [2, 3] of the same compound?
**A.** 1.3 nM

**Q.** `C=CC(=O)N1CCN(C2(c3ccc([C@H](C)Nc4ncc5ccc(=O)n(C(C)C)c5n4)cc3)CCOC2)CC1` (stereo partly drawn) [cpd 17, 2-{[(1S)-1-{4-[3-(4-acryloylpiperazin-1-yl)tetrahydrofuran-3-yl]phenyl}ethyl]amino}-8-(propan-2-yl)pyrido[2,3-d]pyrimidin-7(8H)-one] was tested. Which IC50 [1] did it give?
**A.** 4.9 nM

**Q.** And the IC50 [2, 3]?
**A.** 25.7 nM

**Q.** For `C=CC(=O)N1CCN(C2(c3ccc([C@H](C)Nc4nc(N)c5ccc(=O)n(C(C)C)c5n4)cc3)CCOCC2)CC1` [cpd 19, 2-{[(1S)-1-{4-[4-(4-acryloylpiperazin-1-yl)tetrahydro-2H-pyran-4-yl]phenyl}ethyl]amino}-4-amino-8-(propan-2-yl) pyrido[2,3-d]pyrimidin-7(8H)-one], which IC50 [1] is on record?
**A.** 3 nM

**Q.** And the IC50 [2, 3]?
**A.** 3.1 nM

**Q.** What does the source list for `C=CC(=O)N1CCN(C2(c3ccc([C@H](C)Nc4ncc5ccc(=O)n(C(C)C)c5n4)cc3)CCCCC2)CC1` [cpd 20, 2-{[(1S)-1-{4-[1-(4-acryloylpiperazin-1-yl)cyclohexyl]phenyl}ethyl]amino}-8-(propan-2-yl)pyrido[2,3-d]pyrimidin-7(8H)-one]?
**A.** IC50 [1]: 1 nM; IC50 [2]: 1 nM

**Q.** Which results are given for `CC(C)n1c(=O)ccc2cnc(N[C@@H](C)c3ccc(C4(N5CCN(C(=O)CCl)CC5)CCOCC4)cc3)nc21` [cpd 22, 2-{[(1S)-1-(4-{4-[4-(chloroacetyl)piperazin-1-yl]tetrahydro-2H-pyran-4-yl}phenyl)ethyl]amino}-8-(propan-2-yl) pyrido[2,3-d]pyrimidin-7(8H)-one]?
**A.** IC50 [1]: 121 nM; IC50 [2, 3]: 8 nM

**Q.** What does the source list for `CC(C)n1c(=O)ccc2cnc(N[C@@H](C)c3ccc(C4(N5CCN(C(=O)CCCl)CC5)CCOCC4)cc3)nc21` [cpd 23, 2-{[(1S)-1-(4-{4-[4-(3-chloropropanoyl)piperazin-1-yl]tetrahydro-2H-pyran-4-yl}phenyl)ethyl]amino}-8-(propan-2-yl) pyrido[2,3-d]pyrimidin-7(8H)-one]?
**A.** IC50 [1]: 122 nM; IC50 [2, 3]: 1460 nM

**Q.** With `C=CC(=O)N1CCN(C2(c3ccc([C@H](C)Nc4ncc5c(n4)N(CC)C(=O)OC5)cc3)CCOCC2)CC1` [cpd 24, 7-{[(1S)-1-{4-[4-(4-acryloylpiperazin-1-yl)tetrahydro-2H-pyran-4-yl]phenyl}ethyl]amino}-1-ethyl-1,4-dihydro-2H-pyrimido[4,5-d][1,3]oxazin-2-one] as the compound, how does the IC50 [1] read?
**A.** 2.1 nM

**Q.** And the IC50 [2, 3]?
**A.** 3 nM

**Q.** How did the IC50 [1] turn out when `C=CC(=O)N1CC(N(C)C2(c3ccc([C@H](C)Nc4ncc5ccc(=O)n(C(C)C)c5n4)cc3)CCOCC2)C1` [cpd 28, 2-{[(1S)-1-(4-{4-[(1-acryloylazetidin-3-yl)(methyl)amino]tetrahydro-2H-pyran-4-yl}phenyl)ethyl]amino}-8-(propan-2-yl) pyrido[2,3-d]pyrimidin-7(8H)-one] was run?
**A.** 47 nM

**Q.** What about the IC50 [2, 3] of the same compound?
**A.** 26 nM

**Q.** What does the source list for `C=CC(=O)N1CCN(C2(c3ccc(C4(Nc5ncc6ccc(=O)n(C(C)C)c6n5)CC4)cc3)CCOCC2)CC1` [cpd 30, 2-[(1-{4-[4-(4-acryloylpiperazin-1-yl)tetrahydro-2H-pyran-4-yl]phenyl}cyclopropyl)amino]-8-(propan-2-yl)pyrido[2,3-d]pyrimidin-7(8H)-one]?
**A.** IC50 [1]: 7.5 nM; IC50 [2, 3]: 48 nM

**Q.** How did the IC50 [2, 3] turn out when `CCC(=O)N1CCN(C2(c3ccc([C@H](C)Nc4cc5c(ccc(=O)n5C(C)C)cn4)cc3)CCC(F)(F)CC2)CC1` [cpd 67, 7-{[(1S)-1-{4-[4,4-difluoro-1-(4-propanoylpiperazin-1-yl)cyclohexyl]phenyl}ethyl]amino}-1-(propan-2-yl)-1,6-naphthyridin-2(1H)-one] was run?
**A.** 32 nM
